Experimental findings from DBAASP are described below.

≈ marks a conversion by molar mass, not a printed value. Where “and” joins values, the source holds several entries; their conditions need not be identical. Identical values can stand only once. A value given as a limit tells only on which side of the number the result lay.

Some test systems named below: Escherichia coli; Staphylococcus aureus; Pseudomonas aeruginosa.
Common to all, as to assay: ≥ marks a high value that may be exact or a test limit, other limits are often not marked, values filed in µg/mL are converted to µM
The subject of assay [1] is Enterococcus faecalis ATCC 29212.
Assay [2] deals with Escherichia coli ATCC 25922.
The test system of assay [3] is Pseudomonas aeruginosa ATCC 27853.
Assay [4] has as its system Staphylococcus aureus ATCC 25923.
Assay [5] deals with Candida albicans ATCC 90028.
The test system of assay [6] is Staphylococcus epidermidis ATCC 12228.
Assay [7] has as its system Staphylococcus aureus ATCC 29213.

Take `CC[C@H](C)[C@H](NC(=O)CNC(=O)[C@H](CCCCN)NC(=O)[C@H](CC(C)C)NC(=O)[C@H](CCSC)NC(=O)[C@H](CC(N)=O)NC(=O)[C@H](CCCCN)NC(=O)[C@H](Cc1c[nH]c2ccccc12)NC(=O)[C@H](CC(C)C)NC(=O)[C@H](C)N)C(=O)NCC(=O)N[C@@H](CCCCN)C(=O)N[C@@H](CC(C)C)C(=O)N[C@@H](C)C(=O)NCC(=O)N[C@@H](CCC(N)=O)C(=O)N[C@@H](C)C(=O)N[C@@H](C)C(=O)N[C@@H](CC(C)C)C(=O)NCC(=O)N[C@@H](C)C(=O)N[C@H](C(=O)N[C@@H](CCCCN)C(=O)N[C@H](C(=O)N[C@@H](CC(C)C)C(=O)N[C@H](C(=O)NCC(=O)N[C@@H](C)C(=O)N[C@@H](CCC(=O)O)C(=O)N[C@@H](CO)C(=O)O)C(C)C)[C@@H](C)O)C(C)C` [ALWKNMLKGIGKLAGQAALGAVKTLVGAES]: the MIC in assay [1] came out at 22 µM (≈ 65.9 µg/mL); in [2], 1.3 µM (≈ 3.9 µg/mL); in [3], 5.4 µM (≈ 16.2 µg/mL); in assay [4], 2.7 µM (≈ 8.09 µg/mL).

For the compound `CC[C@H](C)[C@H](NC(=O)[C@@H]1CCCN1C(=O)[C@H](CC(C)C)NC(=O)[C@@H](N)Cc1ccccc1)C(=O)N[C@@H](CC(C)C)C(=O)NCC(=O)N[C@@H](CCCCN)C(=O)N[C@@H](CC(C)C)C(=O)N[C@@H](CC(C)C)C(=O)N[C@@H](CO)C(=O)NCC(=O)N[C@@H](Cc1ccccc1)C(=O)N[C@@H](CC(C)C)C(N)=O` [FLPILGKLLSGFL], the results for the MIC in assay [5], in assay [2] and in assay [4] were no less than 80 µM, greater than 160 µM and 10 µM (≈ 14.2 µg/mL), respectively.

Take `CC[C@H](C)[C@H](NC(=O)CNC(C)=O)C(=O)NCC(=O)N[C@@H](CCCCN)C(=O)N[C@@H](Cc1ccccc1)C(=O)N[C@@H](CC(C)C)C(=O)N[C@@H](Cc1cnc[nH]1)C(=O)N[C@@H](CO)C(=O)N[C@@H](C)C(=O)N[C@@H](CCCCN)C(=O)N[C@@H](CCCCN)C(=O)N[C@@H](Cc1ccccc1)C(=O)NCC(=O)N[C@@H](CCCCN)C(=O)N[C@@H](C)C(=O)N[C@@H](Cc1ccccc1)C(=O)N[C@H](C(=O)NCC(=O)N[C@@H](CCC(N)=O)C(=O)N[C@H](C(=O)N[C@@H](CCSC)C(=O)N[C@@H](CC(N)=O)C(=O)N[C@@H](CO)C(N)=O)[C@@H](C)CC)C(C)C` [GIGKFLHSAKKFGKAFVGQIMNS]: the MIC in assay [2] and in assay [6] was 20 µM (≈ 50.1 µg/mL) in each case.

For the compound `CC[C@H](C)[C@H](NC(=O)CN)C(=O)N[C@@H](CCCCN)C(=O)N[C@@H](CCCCN)C(=O)N[C@@H](Cc1c[nH]c2ccccc12)C(=O)N1CCC[C@H]1C(=O)N[C@@H](Cc1cnc[nH]1)C(=O)N[C@@H](CCCCN)C(=O)N1CCC[C@H]1C(=O)N[C@@H](CCCCN)C(=O)N[C@@H](CCCCN)C(=O)N[C@@H](Cc1ccccc1)C(=O)NCC(=O)N[C@@H](CCCCN)C(=O)N[C@@H](CCCCN)C(=O)N[C@@H](Cc1ccccc1)C(=O)N[C@H](C(=O)N[C@@H](CCCCN)C(=O)N[C@@H](CCCCN)C(=O)N[C@H](C(=O)N[C@@H](CCCCN)C(=O)N[C@@H](CCCCN)C(=O)N[C@@H](CO)C(N)=O)[C@@H](C)CC)C(C)C` [GIKKWPHKPKKFGKKFVKKIKKS], the MIC was 10 µM (≈ 27.7 µg/mL) in assay [2] and 5 µM (≈ 13.8 µg/mL) in [6].

In the case of `CC[C@H](C)[C@H](NC(=O)CNC(=O)[C@H](CO)NC(=O)[C@H](CC(C)C)NC(=O)[C@@H](NC(=O)CN)[C@@H](C)CC)C(=O)N[C@@H](CC(C)C)C(=O)NCC(=O)N[C@@H](C)C(=O)NCC(=O)N[C@@H](CCCCN)C(=O)N[C@@H](CO)C(=O)N[C@@H](CC(C)C)C(=O)N[C@H](C(=O)N[C@H]1CSSC[C@@H](C(=O)O)NC(=O)[C@H](CC(C)C)NC(=O)CNC(=O)[C@H](CO)NC(=O)[C@H](CC(C)C)NC(=O)CNC1=O)C(C)C` [GILSGILGAGKSLVCGLSGLC], the MIC against Escherichia coli is 50 µM (≈ 95.8 µg/mL); in the assay on Staphylococcus aureus it was greater than 100 µM.

Regarding `CC[C@H](C)[C@H](NC(=O)CN)C(=O)N[C@@H](CCSC)C(=O)N[C@@H](CC(=O)O)C(=O)N[C@H](C(=O)N[C@H](C(=O)N[C@@H](CCCCN)C(=O)NCC(=O)N[C@@H](C)C(=O)N[C@@H](C)C(=O)N[C@@H](CCCCN)C(=O)N[C@@H](CC(=O)O)C(=O)N[C@@H](CC(C)C)C(=O)N[C@@H](C)C(=O)NCC(=O)N[C@@H](CCC(N)=O)C(=O)N[C@@H](CC(C)C)C(=O)N[C@@H](CC(C)C)C(=O)N[C@@H](CC(=O)O)C(=O)N[C@@H](CCCCN)C(=O)N[C@@H](CC(C)C)C(=O)N[C@@H](CCCCN)C(=O)N[C@H]1CSSC[C@@H](C(=O)O)NC(=O)[C@H](CCCCN)NC(=O)[C@H]([C@@H](C)O)NC(=O)[C@H]([C@@H](C)CC)NC(=O)[C@H](CCCCN)NC1=O)[C@@H](C)CC)[C@@H](C)O` [GIMDTIKGAAKDLAGQLLDKLKCKITKC], the minimal inhibitory concentration (MIC) was no less than 150 µM in [5], 75 µM (≈ 223 µg/mL) in assay [2] and greater than 150 µM in assay [4].

Turning to `NCC(=O)N[C@@H](CCCN=C(N)N)C(=O)N[C@@H](CCCN=C(N)N)C(=O)N1CCC[C@H]1C(=O)N[C@@H](CCCN=C(N)N)C(=O)N1CCC[C@H]1C(=O)N[C@@H](CCCN=C(N)N)C(=O)N1CCC[C@H]1C(=O)N[C@@H](CCCN=C(N)N)C(=O)N1CCC[C@H]1C(=O)N[C@@H](Cc1ccccc1)C(=O)N[C@@H](Cc1ccccc1)C(=O)N[C@@H](Cc1ccccc1)C(N)=O` [GRRPRPRPRPFFF], the MIC in [2] is 160 µM (≈ 270 µg/mL); in [3], greater than 160 µM; in assay [7], 40 µM (≈ 67.4 µg/mL).

Compound `CC[C@H](C)[C@H](N)C(=O)N[C@H](C(=O)N[C@@H](CCCN=C(N)N)C(=O)N[C@H](C(=O)N[C@@H](C)C(=O)N[C@H](C(=O)N[C@@H](C)C(=O)N[C@@H](CC(C)C)C(=O)N[C@@H](CCCN=C(N)N)C(=O)N[C@@H](CCCN=C(N)N)C(=O)N[C@H](C(=O)N[C@@H](CCCN=C(N)N)C(N)=O)[C@@H](C)CC)C(C)C)C(C)C)C(C)C` [IVRVAVALRRIR] registered a minimal inhibitory concentration (MIC) against Pseudomonas aeruginosa of 51.3 µM (≈ 73 µg/mL).

`CC(C)C[C@H](NC(=O)[C@H](CCCCN)NC(=O)CNC(=O)[C@H](C)NC(=O)[C@H](CC(C)C)NC(=O)[C@H](CCCCN)NC(=O)[C@H](C)NC(=O)[C@H](CC(C)C)NC(=O)[C@H](CCCCN)NC(=O)CNC(=O)[C@H](C)NC(=O)[C@H](Cc1c[nH]c2ccccc12)NC(=O)[C@H](CCCCN)NC(=O)[C@H](C)NC(=O)[C@H](CC(C)C)NC(=O)[C@H](CCCCN)NC(=O)CNC(=O)[C@H](C)NC(=O)[C@H](CC(C)C)NC(=O)[C@@H](N)CCCCN)C(=O)N[C@@H](C)C(N)=O` [KLAGKLAKWAGKLAKLAGKLA]: the results for the MIC with Escherichia coli, against Pseudomonas aeruginosa and in the assay on Staphylococcus aureus were 3.74 µM (≈ 8 µg/mL), 7.49 µM (≈ 16 µg/mL) and 3.74 µM (≈ 8 µg/mL), respectively.

Consider `CC(C)C[C@H](NC(=O)[C@H](CCCCN)NC(=O)[C@H](C)NC(=O)[C@H](CC(C)C)NC(=O)[C@H](CCCCN)NC(=O)[C@H](CCCCN)NC(=O)[C@H](CC(C)C)NC(=O)[C@H](CC(C)C)NC(=O)[C@H](CCCCN)NC(=O)[C@H](CC(C)C)NC(=O)[C@H](CC(C)C)NC(=O)[C@H](CCCCN)NC(=O)[C@H](CCCCN)NC(=O)[C@@H](N)CC(C)C)C(=O)N[C@@H](C)C(=O)NCC(=O)O` [LKKLLKLLKKLAKLAG], for which the MIC in [2] and in assay [7] was 10 µM (≈ 17.8 µg/mL) each time.

Regarding `CC[C@H](C)[C@H](NC(=O)CNC(=O)CNC(=O)[C@H](CC(C)C)NC(=O)[C@H](CC(C)C)NC(=O)[C@H](CO)NC(=O)CNC(=O)[C@@H](NC(=O)[C@H](CC(C)C)NC(=O)[C@@H](N)CC(N)=O)C(C)C)C(=O)N[C@@H](CC(C)C)C(=O)N[C@@H](CCCCN)C(=O)N[C@@H](CCCCN)C(N)=O` [NLVGSLLGGILKK], the MIC was 457 µM (≈ 600 µg/mL) in assay [2] and greater than 534 µM in assay [7].

`CC[C@H](C)[C@H](NC(=O)[C@H](CCCCN)NC(=O)[C@H](C)NC(=O)[C@@H](N)CCC(N)=O)C(=O)N[C@@H](CCCN=C(N)N)C(=O)N[C@H](C(=O)N[C@@H](CCCN=C(N)N)C(=O)N[C@@H](CC(C)C)C(=O)N[C@@H](CO)C(=O)N[C@@H](C)C(=O)O)C(C)C` [QAKIRVRLSA]: the figures for the MIC in assay [2], in assay [3] and in [7] were 112 µM (≈ 128 µg/mL), 28 µM (≈ 32 µg/mL) and greater than 56.1 µM, respectively.

Consider `NCCCC[C@H](NC(=O)[C@H](CCCCN)NC(=O)[C@H](CCCN=C(N)N)NC(=O)[C@H](CCCN=C(N)N)NC(=O)[C@H](Cc1c[nH]c2ccccc12)NC(=O)[C@H](Cc1c[nH]c2ccccc12)NC(=O)[C@H](CCCN=C(N)N)NC(=O)[C@H](CCCCN)NC(=O)[C@H](CCCCN)NC(=O)[C@@H](N)CCCN=C(N)N)C(N)=O` [RKKRWWRRKK], for which the MIC against Escherichia coli was 3 µM and 6 µM; in assay [4], 3 µM and 6 µM.

Turning to `CC(C)C[C@H](NC(=O)[C@H](C)NC(=O)[C@H](Cc1ccc(O)cc1)NC(=O)[C@H](CC(C)C)NC(=O)[C@H](CCCN=C(N)N)NC(=O)[C@H](C)NC(=O)[C@H](CC(C)C)NC(=O)[C@H](CO)NC(=O)[C@H](C)NC(=O)[C@H](CC(C)C)NC(=O)[C@H](CC(=O)O)NC(=O)[C@H](CCCN=C(N)N)NC(=O)[C@H](CCCN=C(N)N)NC(=O)[C@H](CCCN=C(N)N)NC(=O)[C@H](CCC(=O)O)NC(=O)[C@H](CCC(=O)O)NC(=O)[C@H](CO)NC(=O)[C@@H](NC(=O)[C@H](CCC(N)=O)NC(=O)[C@H](Cc1ccc(O)cc1)NC(=O)[C@@H](N)Cc1ccc(O)cc1)C(C)C)C(=O)N[C@@H](C)C(=O)N[C@@H](CCCN=C(N)N)C(N)=O` [YYQVSEERRRDLASLARLYALAR], the MIC in [2] and in [7] was greater than 250 µM each time.

By MIC is commonly meant the lowest concentration found to suppress growth. Read a high MIC as a less susceptible organism.
